In ChEMBL document CHEMBL5463725, “Data for DCP probe BAY-277” (2023):

Legend:
Conditions in all cases: Compound concentration 10.0 uM
[1] = target: PAS domain-containing serine/threonine-protein kinase (Homo sapiens) (UniProt Q96RG2); assay: Inhibition of PASK(h) at 10.0 µM in the Eurofins Kinase panel
[2] = target: Testis-specific serine/threonine-protein kinase 4 (Homo sapiens) (UniProt Q6SA08); assay: Inhibition of TSSK4(h) at 10.0 µM in the Eurofins Kinase panel
[3] = target: Serine/threonine-protein kinase Sgk1 (Homo sapiens) (UniProt O00141); assay: Inhibition of SGK(h) at 10.0 µM in the Eurofins Kinase panel
[4] = target: SRSF protein kinase 3 (Homo sapiens) (UniProt Q9UPE1); assay: Inhibition of MSSK1(h) at 10.0 µM in the Eurofins Kinase panel
[5] = target: Tribbles homolog 2 (Homo sapiens) (UniProt Q92519); assay: Inhibition of TRB2(h) at 10.0 µM in the Eurofins Kinase panel
[6] = target: Ribosomal protein S6 kinase beta-1 (Homo sapiens) (UniProt P23443); assay: Inhibition of p70S6K(h) at 10.0 µM in the Eurofins Kinase panel
[7] = target: Cyclin-dependent kinase-like 2 (Homo sapiens) (UniProt Q92772); assay: Inhibition of CDKL2(h) at 10.0 µM in the Eurofins Kinase panel
[8] = target: STE20/SPS1-related proline-alanine-rich protein kinase (Homo sapiens) (UniProt Q9UEW8); assay: Inhibition of STK39(h) at 10.0 µM in the Eurofins Kinase panel
[9] = target: TRAF2 and NCK-interacting protein kinase (Homo sapiens) (UniProt Q9UKE5); assay: Inhibition of TNIK(h) at 10.0 µM in the Eurofins Kinase panel
[10] = target: Serine/threonine-protein kinase 26 (Homo sapiens) (UniProt Q9P289); assay: Inhibition of MST4(h) at 10.0 µM in the Eurofins Kinase panel
[11] = target: Serine/threonine-protein kinase Nek5 (Homo sapiens) (UniProt Q6P3R8); assay: Inhibition of NEK5(h) at 10.0 µM in the Eurofins Kinase panel
[12] = target: Tyrosine-protein kinase Mer (Homo sapiens) (UniProt Q12866); assay: Inhibition of Mer(h) at 10.0 µM in the Eurofins Kinase panel
[13] = target: [Pyruvate dehydrogenase (acetyl-transferring)] kinase isozyme 2, mitochondrial (Homo sapiens) (UniProt Q15119); assay: Inhibition of PDHK2(h) at 10.0 µM in the Eurofins Kinase panel
[14] = target: Casein kinase II subunit alpha' (Homo sapiens) (UniProt P19784); assay: Inhibition of CK2alpha2(h) at 10.0 µM in the Eurofins Kinase panel
[15] = target: MAP kinase-activated protein kinase 3 (Homo sapiens) (UniProt Q16644); assay: Inhibition of MAPKAP-K3(h) at 10.0 µM in the Eurofins Kinase panel
[16] = target: Protein kinase C gamma type (Homo sapiens) (UniProt P05129); assay: Inhibition of PKCgamma(h) at 10.0 µM in the Eurofins Kinase panel
[17] = target: Interferon-induced, double-stranded RNA-activated protein kinase (Homo sapiens) (UniProt P19525); assay: Inhibition of PKR(h) at 10.0 µM in the Eurofins Kinase panel
[18] = target: Serine/threonine-protein kinase ICK (Homo sapiens) (UniProt Q9UPZ9); assay: Inhibition of ICK(h) at 10.0 µM in the Eurofins Kinase panel
[19] = target: Tyrosine-protein kinase Fgr (Homo sapiens) (UniProt P09769); assay: Inhibition of Fgr(h) at 10.0 µM in the Eurofins Kinase panel
[20] = target: Serine/threonine-protein kinase Sgk3 (Homo sapiens) (UniProt Q96BR1); assay: Inhibition of SGK3(h) at 10.0 µM in the Eurofins Kinase panel
[21] = target: Sodium- and chloride-dependent GABA transporter 1 (Rattus norvegicus) (UniProt P23978); assay: (§1) Inhibition of Transporter, GABA at 10.0 µM in the Eurofins Panlabs Safety Screen
[22] = target: Serine/threonine-protein kinase DCLK2 (Homo sapiens) (UniProt Q8N568); assay: Inhibition of DCAMKL2(h) at 10.0 µM in the Eurofins Kinase panel
[23] = target: Serine/threonine-protein kinase 38 (Homo sapiens) (UniProt Q15208); assay: Inhibition of NDR1(h) at 10.0 µM in the Eurofins Kinase panel
[24] = target: Tyrosine-protein kinase JAK2 (Homo sapiens) (UniProt O60674); assay: Inhibition of JAK2(h) at 10.0 µM in the Eurofins Kinase panel
[25] = tested on: Arachidonate 15-lipoxygenase B ALOX15B (Homo sapiens); assay: Inhibition of Lipoxygenase 15-LOX-2 at 10.0 µM in the Eurofins Panlabs Safety Screen
[26] = target: Activin receptor type-1-like (Homo sapiens) (UniProt P37023); assay: Inhibition of ALK1(h) at 10.0 µM in the Eurofins Kinase panel
[27] = target: Mitogen-activated protein kinase kinase kinase kinase 2 MAP4K2 (Homo sapiens) (UniProt Q12851); assay: Inhibition of GCK at 10.0 µM in the Eurofins Kinase panel
[28] = target: Calcium/calmodulin-dependent protein kinase type 1D (Homo sapiens) (UniProt Q8IU85); assay: Inhibition of CaMKIdelta(h) at 10.0 µM in the Eurofins Kinase panel
[29] = target: Calcium/calmodulin-dependent protein kinase type 1G (Homo sapiens) (UniProt Q96NX5); assay: Inhibition of CaMKIgamma(h) at 10.0 µM in the Eurofins Kinase panel
[30] = target: Tyrosine-protein kinase Yes (Homo sapiens) (UniProt P07947); assay: Inhibition of Yes(h) at 10.0 µM in the Eurofins Kinase panel
[31] = target: Megakaryocyte-associated tyrosine-protein kinase (Homo sapiens) (UniProt P42679); assay: Inhibition of MATK(h) at 10.0 µM in the Eurofins Kinase panel
[32] = target: 3-hydroxy-3-methylglutaryl-coenzyme A reductase (Homo sapiens) (UniProt P04035); assay: Inhibition of HMG-CoA Reductase at 10.0 µM in the Eurofins Panlabs Safety Screen
[33] = target: Serine/threonine-protein kinase pim-3 (Homo sapiens) (UniProt Q86V86); assay: Inhibition of Pim-3(h) at 10.0 µM in the Eurofins Kinase panel
[34] = target: GABA transporter (Rattus norvegicus) (UniProt P31647+P23978+P31646+P48056); assay: as §1; format: protein assay
[35] = target: Cannabinoid receptor 1 (Homo sapiens) (UniProt P21554); assay: Inhibition of Cannabinoid CB1 at 10.0 µM in the Eurofins Panlabs Safety Screen
[36] = target: Beta-1 adrenergic receptor (Homo sapiens) (UniProt P08588)
[37] = target: Serine/threonine-protein kinase Sgk2 (Homo sapiens) (UniProt Q9HBY8); assay: Inhibition of SGK2(h) at 10.0 µM in the Eurofins Kinase panel
[38] = target: Vascular endothelial growth factor receptor 3 (Homo sapiens) (UniProt P35916); assay: Inhibition of Flt4(h) at 10.0 µM in the Eurofins Kinase panel

Sequence of Beta-1 adrenergic receptor (Homo sapiens) (P08588 whole entry, looked up): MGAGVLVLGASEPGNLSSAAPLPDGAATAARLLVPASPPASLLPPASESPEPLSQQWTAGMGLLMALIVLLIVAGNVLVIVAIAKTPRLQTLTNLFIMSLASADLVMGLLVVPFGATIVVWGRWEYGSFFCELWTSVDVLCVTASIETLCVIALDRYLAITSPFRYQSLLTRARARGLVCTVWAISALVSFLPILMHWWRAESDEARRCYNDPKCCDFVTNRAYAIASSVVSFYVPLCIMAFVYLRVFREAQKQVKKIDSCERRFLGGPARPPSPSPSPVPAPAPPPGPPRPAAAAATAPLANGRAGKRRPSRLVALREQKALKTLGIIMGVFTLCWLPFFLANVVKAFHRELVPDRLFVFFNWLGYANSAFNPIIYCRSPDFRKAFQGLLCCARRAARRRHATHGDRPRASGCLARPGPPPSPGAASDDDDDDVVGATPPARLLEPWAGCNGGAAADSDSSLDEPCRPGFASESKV
Sequence of SRSF protein kinase 3 (Homo sapiens) (Q9UPE1 whole entry): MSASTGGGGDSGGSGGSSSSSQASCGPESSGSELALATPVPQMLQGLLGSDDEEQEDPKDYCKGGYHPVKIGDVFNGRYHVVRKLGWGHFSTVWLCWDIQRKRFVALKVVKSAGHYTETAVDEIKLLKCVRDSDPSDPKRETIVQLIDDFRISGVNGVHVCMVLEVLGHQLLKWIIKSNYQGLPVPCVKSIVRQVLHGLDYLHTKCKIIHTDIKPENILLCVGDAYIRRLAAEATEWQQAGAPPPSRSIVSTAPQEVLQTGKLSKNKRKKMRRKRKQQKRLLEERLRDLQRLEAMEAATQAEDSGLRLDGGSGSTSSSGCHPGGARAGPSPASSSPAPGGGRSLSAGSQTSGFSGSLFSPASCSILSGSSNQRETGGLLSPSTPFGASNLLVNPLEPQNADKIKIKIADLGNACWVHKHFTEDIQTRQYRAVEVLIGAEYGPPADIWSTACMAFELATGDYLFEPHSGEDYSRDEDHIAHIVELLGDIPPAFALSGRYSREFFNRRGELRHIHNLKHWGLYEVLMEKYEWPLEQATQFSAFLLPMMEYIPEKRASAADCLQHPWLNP
Sequence of Serine/threonine-protein kinase Nek5 (Homo sapiens) (Q6P3R8 whole entry): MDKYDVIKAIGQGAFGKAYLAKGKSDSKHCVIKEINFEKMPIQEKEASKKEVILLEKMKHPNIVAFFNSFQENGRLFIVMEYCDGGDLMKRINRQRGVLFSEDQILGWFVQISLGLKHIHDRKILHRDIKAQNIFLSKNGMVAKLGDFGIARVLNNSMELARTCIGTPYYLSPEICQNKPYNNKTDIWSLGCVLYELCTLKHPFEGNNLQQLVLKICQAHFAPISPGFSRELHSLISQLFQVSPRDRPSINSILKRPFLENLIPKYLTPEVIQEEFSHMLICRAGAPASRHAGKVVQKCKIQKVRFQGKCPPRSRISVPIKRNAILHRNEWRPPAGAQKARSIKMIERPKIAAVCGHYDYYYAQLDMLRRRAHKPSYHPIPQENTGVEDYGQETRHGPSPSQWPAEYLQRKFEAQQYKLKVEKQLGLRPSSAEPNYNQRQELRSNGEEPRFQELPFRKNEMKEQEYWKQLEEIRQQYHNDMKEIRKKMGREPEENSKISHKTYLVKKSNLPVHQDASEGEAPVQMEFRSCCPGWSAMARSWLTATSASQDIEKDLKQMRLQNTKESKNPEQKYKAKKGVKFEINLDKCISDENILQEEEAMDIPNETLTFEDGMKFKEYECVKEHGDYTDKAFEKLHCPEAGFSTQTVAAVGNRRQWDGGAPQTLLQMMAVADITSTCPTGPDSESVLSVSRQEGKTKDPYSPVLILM
Sequence of Serine/threonine-protein kinase Sgk3 (Homo sapiens) (Q96BR1 whole entry): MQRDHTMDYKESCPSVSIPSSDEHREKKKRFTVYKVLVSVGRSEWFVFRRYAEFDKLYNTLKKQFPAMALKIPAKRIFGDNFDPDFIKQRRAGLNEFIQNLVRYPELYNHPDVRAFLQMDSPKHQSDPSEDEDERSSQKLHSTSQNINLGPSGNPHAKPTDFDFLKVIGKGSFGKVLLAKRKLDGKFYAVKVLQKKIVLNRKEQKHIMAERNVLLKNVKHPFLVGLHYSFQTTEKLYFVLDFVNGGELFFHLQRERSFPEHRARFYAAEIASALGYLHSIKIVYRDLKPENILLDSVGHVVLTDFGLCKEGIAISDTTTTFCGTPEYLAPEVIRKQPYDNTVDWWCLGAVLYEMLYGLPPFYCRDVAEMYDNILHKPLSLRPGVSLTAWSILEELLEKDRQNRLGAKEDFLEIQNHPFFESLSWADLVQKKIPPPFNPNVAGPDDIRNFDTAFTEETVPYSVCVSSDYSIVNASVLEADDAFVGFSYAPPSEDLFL
Sequence of Testis-specific serine/threonine-protein kinase 4 (Homo sapiens) (Q6SA08 whole entry): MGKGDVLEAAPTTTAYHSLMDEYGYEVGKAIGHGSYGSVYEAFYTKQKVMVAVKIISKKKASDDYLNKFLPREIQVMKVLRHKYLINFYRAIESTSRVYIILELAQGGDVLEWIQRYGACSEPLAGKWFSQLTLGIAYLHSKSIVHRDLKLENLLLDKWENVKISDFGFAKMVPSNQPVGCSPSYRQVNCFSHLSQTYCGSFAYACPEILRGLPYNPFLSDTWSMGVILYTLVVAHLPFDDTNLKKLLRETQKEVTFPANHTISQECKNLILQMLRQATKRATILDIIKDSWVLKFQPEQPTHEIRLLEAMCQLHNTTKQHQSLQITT
Sequence of Cyclin-dependent kinase-like 2 (Homo sapiens) (Q92772 whole entry): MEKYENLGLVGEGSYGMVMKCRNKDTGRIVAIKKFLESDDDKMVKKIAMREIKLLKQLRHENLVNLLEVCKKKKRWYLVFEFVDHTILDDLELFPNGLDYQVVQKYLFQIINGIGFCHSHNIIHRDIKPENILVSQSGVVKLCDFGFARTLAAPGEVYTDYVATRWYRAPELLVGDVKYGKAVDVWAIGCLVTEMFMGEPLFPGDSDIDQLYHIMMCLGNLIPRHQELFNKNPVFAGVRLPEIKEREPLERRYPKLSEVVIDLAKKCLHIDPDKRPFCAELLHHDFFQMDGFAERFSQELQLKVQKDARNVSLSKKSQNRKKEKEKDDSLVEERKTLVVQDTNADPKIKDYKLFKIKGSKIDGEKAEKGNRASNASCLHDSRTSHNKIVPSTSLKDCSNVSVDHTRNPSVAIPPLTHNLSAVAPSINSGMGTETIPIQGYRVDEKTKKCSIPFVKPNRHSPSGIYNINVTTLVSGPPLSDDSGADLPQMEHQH
Sequence of Interferon-induced, double-stranded RNA-activated protein kinase (Homo sapiens) (P19525 whole entry): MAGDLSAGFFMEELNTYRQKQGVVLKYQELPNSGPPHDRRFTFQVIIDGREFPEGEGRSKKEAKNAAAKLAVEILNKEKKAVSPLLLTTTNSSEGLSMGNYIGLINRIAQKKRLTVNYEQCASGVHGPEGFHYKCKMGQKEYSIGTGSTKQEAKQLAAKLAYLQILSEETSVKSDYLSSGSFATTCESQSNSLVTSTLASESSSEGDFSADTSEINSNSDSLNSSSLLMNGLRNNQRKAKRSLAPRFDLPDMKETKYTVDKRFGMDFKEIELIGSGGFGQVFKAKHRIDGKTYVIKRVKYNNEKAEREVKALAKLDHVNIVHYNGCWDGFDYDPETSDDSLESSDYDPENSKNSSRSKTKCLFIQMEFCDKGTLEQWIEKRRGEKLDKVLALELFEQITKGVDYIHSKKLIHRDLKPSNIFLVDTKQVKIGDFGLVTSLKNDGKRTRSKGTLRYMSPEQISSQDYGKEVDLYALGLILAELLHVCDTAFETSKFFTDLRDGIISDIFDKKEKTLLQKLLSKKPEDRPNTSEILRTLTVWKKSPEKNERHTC
Sequence of Tribbles homolog 2 (Homo sapiens) (Q92519 whole entry): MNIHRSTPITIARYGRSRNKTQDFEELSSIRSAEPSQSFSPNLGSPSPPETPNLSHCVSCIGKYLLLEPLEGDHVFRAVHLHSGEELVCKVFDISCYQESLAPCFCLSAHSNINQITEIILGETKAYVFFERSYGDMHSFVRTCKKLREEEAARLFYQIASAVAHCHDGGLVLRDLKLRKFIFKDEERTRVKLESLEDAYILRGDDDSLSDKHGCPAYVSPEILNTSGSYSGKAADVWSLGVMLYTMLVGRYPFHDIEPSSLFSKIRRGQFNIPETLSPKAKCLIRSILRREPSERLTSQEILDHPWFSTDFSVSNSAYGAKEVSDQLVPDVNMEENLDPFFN
Sequence of Megakaryocyte-associated tyrosine-protein kinase (Homo sapiens) (P42679 whole entry): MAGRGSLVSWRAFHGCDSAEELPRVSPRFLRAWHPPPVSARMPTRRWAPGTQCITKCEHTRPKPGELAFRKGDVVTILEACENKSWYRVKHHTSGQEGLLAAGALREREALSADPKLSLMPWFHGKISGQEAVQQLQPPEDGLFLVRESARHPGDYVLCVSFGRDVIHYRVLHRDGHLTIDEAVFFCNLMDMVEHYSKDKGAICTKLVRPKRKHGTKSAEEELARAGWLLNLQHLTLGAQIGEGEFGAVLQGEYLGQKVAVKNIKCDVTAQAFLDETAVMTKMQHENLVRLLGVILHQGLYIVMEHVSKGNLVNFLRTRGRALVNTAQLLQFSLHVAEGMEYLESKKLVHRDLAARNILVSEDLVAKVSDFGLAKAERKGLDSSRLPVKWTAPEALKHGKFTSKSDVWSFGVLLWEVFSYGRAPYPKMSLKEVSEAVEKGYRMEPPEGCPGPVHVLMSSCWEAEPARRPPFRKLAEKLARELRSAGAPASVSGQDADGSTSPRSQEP
Sequence of Calcium/calmodulin-dependent protein kinase type 1G (Homo sapiens) (Q96NX5 whole entry): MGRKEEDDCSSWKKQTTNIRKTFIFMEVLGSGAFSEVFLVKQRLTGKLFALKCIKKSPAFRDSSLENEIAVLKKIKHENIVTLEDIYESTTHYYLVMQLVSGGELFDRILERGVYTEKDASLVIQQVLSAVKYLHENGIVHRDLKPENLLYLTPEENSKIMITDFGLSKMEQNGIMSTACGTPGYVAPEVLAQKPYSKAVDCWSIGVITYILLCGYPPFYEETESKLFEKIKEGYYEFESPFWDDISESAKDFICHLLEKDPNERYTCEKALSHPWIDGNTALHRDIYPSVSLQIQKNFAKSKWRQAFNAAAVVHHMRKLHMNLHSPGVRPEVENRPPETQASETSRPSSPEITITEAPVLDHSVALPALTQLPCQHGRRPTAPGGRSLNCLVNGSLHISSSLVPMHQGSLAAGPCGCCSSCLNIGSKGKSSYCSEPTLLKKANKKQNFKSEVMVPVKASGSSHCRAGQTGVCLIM

`O=C1NCCCC1N1Cc2cc(C3CCN(C(=O)CCCCCN4CCC(c5ccc(Oc6nn7cnnc7c7c6CCCC7)cc5)CC4)CC3)ccc2C1=O` (stereo not drawn) gave an inhibition [1] of 23.9%, an inhibition [2] of 10.8% and an inhibition [3] of 10.8%. For the same compound, the inhibition [4] was 12.1%, the inhibition [5] was 10.9% and the inhibition [6] was 10.2%. For the same compound, the inhibition [7] was 17.6%, the inhibition [8] was 11.5% and the inhibition [9] was 12.5%. For the same compound, the inhibition [10] was 10.1%, the inhibition [11] was 17.5% and the inhibition [12] was 17.9%. For the same compound, the inhibition [13] was 18.6%, the inhibition [14] was 10.9% and the inhibition [15] was 11.4%. For the same compound, the inhibition [16] was 10.9%, the inhibition [17] was 10.3% and the inhibition [18] was 10.1%. It also gave an inhibition [19] of 10.1%, an inhibition [20] of 13.4% and an inhibition [21] of 8%. The inhibition [22] was 12% and the inhibition [23] was 11.2%.
`O=C1CCC(N2Cc3cc(C4CCN(C(=O)CCCCCN5CCC(c6ccc(Oc7nn8cnnc8c8c7CCCC8)cc6)CC5)CC4)ccc3C2=O)C(=O)N1` (stereo not drawn) showed an inhibition [24] of 21.8%, an inhibition [25] of -1% and an inhibition [26] of 11.5%. The inhibition [27] was 11.3%, the inhibition [28] was 11.4% and the inhibition [29] was 15.7%. For the same compound, the inhibition [30] was 10.9%, the inhibition [31] was 19.7% and the inhibition [32] was 12%. It also gave an inhibition [33] of 10.3%, an inhibition [34] of 5% and an inhibition [35] of 1%. It also gave an inhibition [36] of 0.81%, an inhibition [37] of 16.5% and an inhibition [38] of 12.5%.
